Assay results reported in patent US20250353891A1 (MEDIMMUNE LIMITED, priority 2022, published 2025).
“And” between values parts separate entries of the source, which are not always exact repeats. Identical values can stand only once. Values belong to the compound of their own block, whether it stands above or below them. Starred links: 1 amine or outer side, 2 acyl side, 3 side chain; linkers in the order of their positions; H or OH if unused. Non-standard residues stand in square brackets, D forms with d. Residues, ends and D or L forms follow the SMILES beside them. Groups on a side chain read outwards from the residue. *: point of attachment. C20 diacid = O=C(O)CCCCCCCCCCCCCCCCCCC(=O)*; γGlu = O=C(O)[C@H](CCC(=O)[*:2])N[*:1]; αMeF = C[C@](N)(Cc1ccccc1)C(=O)O; AEEA = NCCOCCOCC(=O)O; Aib = CC(C)(N)C(=O)O

Key:
[1] = in vivo; conditions: male, Beagle, dog, iv, 10 nmol/kg
Text: (§1) Selected test peptides (n=8) were profiled for pharmacokinetic (PK) properties in the mouse after single intravenous (i.v.) or subcutaneous (s.c.) dose. A subset (n=4) meeting the acceptance criteria was subsequently profiled in the dog (single i.v. dose) and non-human primate (single i.v. and s.c. dose). […] Low-binding plasticware containers were used during preparation and sample handling to avoid non-specific binding.
Blood of each sample was transferred into plastic micro centrifuge tubes containing EDTA-K2, inverted several times for proper mixing of contents and then placed on wet ice.
(§2) Samples analysis: Samples were analyzed by LC-MS/MS. Calibration standards were injected at the beginning and end of each batch and the determined concentration for each prepared standard was used to construct a calibration curve. Plasma and dose aliquot sample concentrations were determined from the plasma calibration curve.
(§3) Data analysis: Plasma concentration data was analyzed by non-compartmental analysis (NCA) using Phoenix Winnonlin v. 8.3.3.33. Linear trapezoidal rule was used for increasing values and log trapezoidal rule was used for decreasing values, applying uniform weighting for lambda_z calculations. Subcutaneous bioavailability was calculated as the ratio AUC(s.c.)0-inf/AUC(i.v.)0-inf. Reported values (Table 18) represent the mean of the individual estimates.

[2] = target: human glucagon receptor (hGCGR) (Homo sapiens, UniProt P47871); assay: cAMP production (HTRF) in CHO cells expressing hGCGR; format: cell-based; parameters: expressed in transfected cells; conditions: Table 6, peptides modified at position 17; cAMP in CHO hGCGR cells; geometric mean; read-out: hGluc-R EC50
Chain of human glucagon receptor (hGCGR) (P47871 26-477): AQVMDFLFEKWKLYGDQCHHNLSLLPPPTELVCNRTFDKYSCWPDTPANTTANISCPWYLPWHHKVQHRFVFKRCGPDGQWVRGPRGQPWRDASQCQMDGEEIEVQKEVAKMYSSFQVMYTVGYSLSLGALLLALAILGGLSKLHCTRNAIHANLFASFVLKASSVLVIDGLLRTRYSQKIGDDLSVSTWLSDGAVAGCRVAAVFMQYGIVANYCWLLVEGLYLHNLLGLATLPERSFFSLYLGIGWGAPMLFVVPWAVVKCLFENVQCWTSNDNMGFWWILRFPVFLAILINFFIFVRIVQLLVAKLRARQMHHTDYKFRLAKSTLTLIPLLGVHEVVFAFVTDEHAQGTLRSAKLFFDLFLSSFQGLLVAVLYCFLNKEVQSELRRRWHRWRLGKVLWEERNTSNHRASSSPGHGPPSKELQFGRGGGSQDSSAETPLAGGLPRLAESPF
How it was run: (§4)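 Potency values represent EC50 from 4-parameter logistic curves of HTRF % Delta F signal. Receptor-expressing CHO cells (hGCGR 2×10^5 cells/mL, hGLP-1R 1×10^5 cells/mL) were exposed for 30 min at room temperature before two-step cAMP detection.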

[3] = target: human GLP-1 receptor (hGLP-1R) (Homo sapiens, UniProt P43220); assay: cAMP production (HTRF) in CHO cells expressing hGLP-1R; format: cell-based; parameters: expressed in transfected cells
Chain of human GLP-1 receptor (hGLP-1R) (P43220 24-463): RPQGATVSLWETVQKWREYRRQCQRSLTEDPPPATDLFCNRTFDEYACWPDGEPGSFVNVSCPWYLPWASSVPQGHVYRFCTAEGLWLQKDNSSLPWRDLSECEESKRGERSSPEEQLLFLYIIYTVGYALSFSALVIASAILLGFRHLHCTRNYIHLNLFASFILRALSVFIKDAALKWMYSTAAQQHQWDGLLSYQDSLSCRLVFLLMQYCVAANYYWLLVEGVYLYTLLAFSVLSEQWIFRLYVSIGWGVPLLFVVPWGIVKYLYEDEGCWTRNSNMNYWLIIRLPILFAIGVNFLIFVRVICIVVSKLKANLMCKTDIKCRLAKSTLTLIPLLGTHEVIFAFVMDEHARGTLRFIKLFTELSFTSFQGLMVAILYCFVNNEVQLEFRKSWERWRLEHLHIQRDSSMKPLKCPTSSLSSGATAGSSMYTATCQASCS
How it was run: as §4

[4] = test system: wildtype (WT) mice; assay: Glucose change in wildtype mice; format: in vivo, mouse; conditions: s.c., 60 min vs 0 min, no somatostatin pretreatment
How it was run: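 Wildtype mice aged 8-14 weeks, fasted 2 h, sometimes pre-treated with octreotide 10 mg/kg 30 min before peptide injection. Blood glucose by glucometer at -30, 0, 30, 60, 120, 180, 240 and 360 min; n=4-8/group, mice reused up to 3 times with ≥1 week wash-out.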

[5] = in vivo; conditions: 10 nmol/kg; for half-life: iv
Text: as §1
After dosing, PK samples were collected from the dorsal metatarsal vein. Blood of each sample was transferred into plastic micro centrifuge tubes containing EDTA-K2, inverted several times for proper mixing of contents and then placed on wet ice. The blood samples were centrifuged at 4° C. to obtain plasma and stored at −75° C. prior to analysis.
as §2, §3

[6] = Mouse acute food intake study; format: in vivo; conditions: male C57Bl/6 mice, s.c., cumulative food intake at 24 hr vs vehicle
How it was run: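 Single-housed male C57Bl/6 mice (8-9 weeks on arrival), chow-fed, acclimated and sham-dosed ≥2 times, were fasted 6-8 h, then given vehicle or peptide subcutaneously at 5 mL/kg 1-2 h before lights out. Food intake was recorded automatically over 48 h and analysed as cumulative intake.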

[7] = test system: GLP-1R knockout (KO) mice; assay: Glucose change in GLP-1R knockout mice; format: in vivo, mouse; conditions: GLP-1R KO mice, s.c., 60 min vs 0 min, no somatostatin pretreatment
How it was run: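 GLP-1R knockout mice (n=4-8/group, sorted by body weight) were fasted 2 h, and in some studies pretreated with octreotide 10 mg/kg 30 min before peptide injection. Mice were reused up to 3 times with at least 1-week wash-out.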

[8] = in vivo; conditions: male, cynomolgus monkey, 10 nmol/kg
Text: as §1
Non-human primate: PK was studied in non-naïve male cynomolgus monkeys. After dosing, PK samples were collected from the femoral vein. Blood of each sample was transferred into plastic micro centrifuge tubes containing EDTA-K2, inverted several times for proper mixing of contents and then placed on wet ice. The blood samples were centrifuged under refrigerated (2° C. to 8° C.) conditions within 30 minutes following sample collection to obtain plasma and stored at −60° C. to −90° C.° C. prior to analysis.
as §2, §3

[9] = Proteolytic resistance to FasSSIF/Pancreatin; format: in vitro ADME; conditions: simulated intestinal fluid
How it was run: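 Peptide (1.0 mg) in pre-warmed FasSSIF, proteolysis started with fresh FasSSIF/USP Pancreatin and held at 37 °C. Aliquots at 0, 5, 10, 15, 30 min quenched in 10% TFA; remaining intact peptide estimated by RP-HPLC peak area, UV 210 nm.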

[10] = Proteolytic resistance to FasSSGF containing porcine pancreatic pepsin; format: in vitro ADME; conditions: pig, simulated gastric fluid
Experimental: Stimulated Gastric Fluid (FasSSGF) Containing Porcine Pancreatic Pepsin Lyophilized porcine pancreatic pepsin (Sigma: P7012) was reconstituted to 0.5 mg/mL (˜2500 units/mL) in freshly prepared FasSSGF (Biorelevant media) to give the enzyme stock solution. Peptide stock solution was prepared to a concentration of 250 μM (˜1.0 mg/mL) in FasSSGF. 200 μL ([…], ˜250 units) of pepsin stock solution was added to 200 μL of peptide solution (1.0 mg/mL, ˜100 μg of peptide, ˜25 nmoles) and the mixture was co-incubated in a temperature-regulated incubator at 37° C. for the duration of the experiment. 30 μL aliquot of the peptide-enzyme mixture was periodically withdrawn (t=0, 5, 10, 15, and 30 min) and quenched immediately by addition of 80 μL of 0.1M ammonium bicarbonate solution in water/acetonitrile (4:1, pH 8) to arrest proteolytic activity. 30 μL aliquot was analyzed by analytical RP-HPLC. Analytical RP-HPLC method: Agilent Polaris C8-A column (4.6×100 mm, 3 micron) eluted with a linear binary gradient of 10-90% MeCN (0.1% TFA v/v) in water (0.1% TFA v/v) over either 10 or 15 mins at 1.5 mL min-1 at 40° C. with detection by UV absorption at 210 nm. Manual integration (AUC) allowed estimation of remaining intact peptide over the time course of the experiment.

[11] = target: T1, recombinant Neprilysin (Homo sapiens, UniProt P08473); assay: Proteolytic resistance to neprilysin; format: in vitro ADME; conditions: pH 8.3
T1 construct: purchased R&D Systems 1182-ZNC-010
T1 sequence (P08473 52-750 limits assumed): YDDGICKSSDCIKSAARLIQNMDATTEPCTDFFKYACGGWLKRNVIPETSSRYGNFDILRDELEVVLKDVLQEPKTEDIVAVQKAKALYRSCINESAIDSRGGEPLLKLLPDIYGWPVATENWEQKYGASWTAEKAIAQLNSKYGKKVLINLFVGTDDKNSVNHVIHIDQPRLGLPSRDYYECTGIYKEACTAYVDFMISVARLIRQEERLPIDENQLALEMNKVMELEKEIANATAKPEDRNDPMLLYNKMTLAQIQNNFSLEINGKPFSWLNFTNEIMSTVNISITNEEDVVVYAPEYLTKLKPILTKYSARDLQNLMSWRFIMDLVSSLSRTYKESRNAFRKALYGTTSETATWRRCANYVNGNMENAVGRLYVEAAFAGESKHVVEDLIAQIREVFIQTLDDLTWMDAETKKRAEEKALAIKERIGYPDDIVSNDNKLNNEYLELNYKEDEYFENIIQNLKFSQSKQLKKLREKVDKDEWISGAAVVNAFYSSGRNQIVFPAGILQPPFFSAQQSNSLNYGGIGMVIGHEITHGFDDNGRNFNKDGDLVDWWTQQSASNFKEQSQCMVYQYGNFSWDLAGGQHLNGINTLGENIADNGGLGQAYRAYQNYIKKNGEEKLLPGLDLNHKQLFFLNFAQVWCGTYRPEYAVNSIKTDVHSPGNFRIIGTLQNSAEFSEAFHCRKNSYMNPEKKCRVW
Experimental: 10.0 μg (˜10 units) recombinant Neprilysin (R&D Systems: 1182-ZNC-010) was reconstituted to 100 μL (100 μg/mL, ˜100 units/mL) in assay buffer (50 mM Tris, 50 mM NaCl, 50 mM NaHCO3, adjusted to pH 8.3) to give the enzyme stock solution. Peptide stock solutions were prepared to a concentration of ˜250 μM (˜1.0 mg/mL of 4 kDa peptide) in assay buffer. 100 μL (10 μg, ˜10 units) of neprilysin stock solution was added to 100 μL of peptide stock solution (1.0 mg/mL, ˜100 μg of peptide) and the mixture was co-incubated in a temperature regulated incubator at 37° C. for the duration of the experiment. 25 μL aliquots (˜ 12.5 μg initial peptide) of the peptide-enzyme mixture were periodically withdrawn (t=0, 30 mins, 1 h, 2 h, 4 h and 24 h) and quenched immediately by addition to an equal volume ([…]) of 10% TFA (v/v) in 1:1 water/acetonitrile to arrest proteolytic activity. The quenched aliquot centrifuged at 7800 rpm, and 30 μL of the supernatant was analyzed by analytical RP-HPLC as follows: Analytical RP-HPLC method: Agilent Polaris C8-A column (4.6×100 mm, 3 micron) eluted with a linear binary gradient of 10-90% MeCN (0.1% TFA v/v) in water (0.1% TFA v/v) over either 10 or 15 mins at 1.5 mL min-1 at 40° C. with detection by UV absorption at 210 nm. Manual integration (AUC) allowed estimation of remaining intact peptide over the time course of the experiment.

- half-life [1]: 71 h
- EC50 [2]: 0.0347 nM
- EC50 ([3]; Table 6, peptides modified at position 17, cAMP in CHO hGLP-1R cells, geometric mean, read-out: hGLP-1R EC50): 0.0208 nM
- % Relative Potency Ratio ([3]; Table 6, % GLP-1R activity relative to GLP-1 / % GlucR activity relative to glucagon): 3.3
- bioavailability ([5]; male, C57BL/6, mouse): 98%
- half-life ([5]; male, C57BL/6, mouse): 7.9 h
- bioavailability [8]: 79%
- half-life ([8]; iv): 67 h
SMILES: CC(C)C[C@H](NC(=O)[C@H](Cc1c[nH]c2ccccc12)NC(=O)[C@H](CCC(N)=O)NC(=O)[C@@H](NC(=O)[C@H](Cc1ccccc1)NC(=O)[C@H](CC(=O)O)NC(=O)[C@H](CCCNC(=N)N)NC(=O)[C@H](C)NC(=O)[C@H](CCCNC(=N)N)NC(=O)[C@H](CCCCNC(=O)COCCOCCNC(=O)COCCOCCNC(=O)CC[C@H](NC(=O)CCCCCCCCCCCCCCCCC(=O)O)C(=O)O)NC(=O)[C@@H](NC(=O)[C@H](CC(=O)O)NC(=O)[C@H](CC(C)C)NC(=O)[C@](C)(Cc1ccccc1)NC(=O)[C@H](CCCCN)NC(=O)[C@H](CO)NC(=O)[C@@H](NC(=O)[C@H](CC(=O)O)NC(=O)[C@H](CO)NC(=O)[C@@H](NC(=O)[C@H](Cc1ccccc1)NC(=O)[C@@H](NC(=O)CNC(=O)[C@H](CCC(N)=O)NC(=O)C(C)(C)NC(=O)[C@@H](N)Cc1c[nH]cn1)[C@@H](C)O)[C@@H](C)O)C(C)C)[C@@H](C)O)C(C)C)C(=O)N[C@@H](CC(C)C)C(=O)N[C@@H](CCC(=O)O)C(=O)NC(C)(C)C(=O)NCC(=O)O [Peptide 188, H-Aib-Q-G-T-F-T-S-D-V—S-K-αMePhe-L-D-T-K-R-A-R-D-F-V-Q-W-L-L-E-Aib-G-acid]
- WT % glucose change 60 min ([4]; 10 nmol/kg): −23.2%
- WT % glucose change 60 min ([4]; 30 nmol/kg): −31.3%
- 24 hr % Vehicle Food Intake ([6]; dose 1 nmol/kg): 99.9%
- 24 hr % Vehicle Food Intake ([6]; dose 3 nmol/kg): 80.6%
- 24 hr % Vehicle Food Intake ([6]; dose 10 nmol/kg): 60.7% and 49.8%
- GLP-1R KO % glucose change - 60 min ([7]; 10 nmol/kg): 64%
- GLP-1R KO % glucose change - 60 min ([7]; 30 nmol/kg): 44.6%

- bioavailability ([5]; mouse): 86%
- half-life ([5]; mouse): 19 h
- remaining at 5 min, 3.3 mg/mL [9]: 60%
- remaining at 10 min, 3.3 mg/mL [9]: 46%
- remaining at 0.25 h, 3.3 mg/mL [9]: 33%
- remaining at 0.5 h, 3.3 mg/mL [9]: 26%
- remaining at 5 min, 125 µM [10]: 100%
- remaining at 10 min, 125 µM [10]: 97%
- remaining at 0.25 h, 125 µM [10]: 91%
- remaining at 0.5 h, 125 µM [10]: 79%
- remaining at 0.5 h ([11]; isolated enzyme neprilysin): 100%
- remaining at 2 h ([11]; isolated enzyme neprilysin): 100%
- remaining at 4 h ([11]; isolated enzyme neprilysin): 100%
- remaining at 24 h ([11]; isolated enzyme neprilysin): 100%
- % intact peptide over time [11]: 100%
SMILES: CC[C@H](C)[C@H](NC(=O)C(C)(C)NC(=O)[C@H](CCC(N)=O)NC(=O)[C@@H](NC(=O)[C@](C)(Cc1ccccc1)NC(=O)[C@H](CC(=O)O)NC(=O)[C@H](CCCCNC(=O)COCCOCCNC(=O)COCCOCCNC(=O)CC[C@H](NC(=O)CC[C@H](NC(=O)CCCCCCCCCCCCCCCCCCC(=O)O)C(=O)O)C(=O)O)NC(=O)[C@H](C)NC(=O)[C@H](C)NC(=O)[C@H](CCCNC(=N)N)NC(=O)[C@H](CO)NC(=O)[C@H](CC(=O)O)NC(=O)[C@H](CC(C)C)NC(=O)[C@](C)(Cc1ccccc1)NC(=O)[C@H](CCCCN)NC(=O)[C@H](CO)NC(=O)[C@@H](NC(=O)[C@H](CC(=O)O)NC(=O)[C@H](CO)NC(=O)[C@@H](NC(=O)[C@](C)(Cc1ccccc1)NC(=O)[C@H](CO)NC(=O)CNC(=O)[C@H](Cc1c[nH]cn1)NC(=O)C(C)(C)NC(=O)[C@@H](N)Cc1c[nH]cn1)[C@@H](C)O)C(C)C)C(C)C)C(=O)N[C@@H](C)C(=O)N[C@@H](CC(N)=O)C(=O)N[C@H](C(N)=O)[C@@H](C)O [Peptide 229, H-Aib-H-G-S-αMePhe-T-S-D-V—S-K-αMePhe-L-D-S-R-A-A-K (E-(O2Oc)-(O2Oc)-γE-γE-C20diacid) 20-D-αMePhe-V-Q-Aib-I-A-N-T-amide] (H-H[Aib]HGS[αMeF]TSDVSK[αMeF]LDSRAAK([AEEA-AEEA-γGlu-γGlu-C20 diacid])D[αMeF]VQ[Aib]IANT-NH2; N-terminus assumed)
